The results in this text go back to patent publication US20080026067A1, “Method for Increasing Specific Surface Area of Slightly Soluble Drug” (priority 2004, published 2008).

The nature of this series: Specific surface area of the powder, multipoint BET method. It is filed as physicochemical. The following applies: powder as obtained. The protocol:
A specific surface area of a powder of the compound A obtained by the above-described methods and the following Examples can be measured by known method, for example, multipoint BET method.
A specific surface area of the compound A was adjusted to give the crystalline powders with different specific surface area by the following method. As well, the measurement of specific surface area was performed by multipoint BET method.
The compound `Cc1ccc(-c2nc(CCOc3cccc4c3CCC=C4CCC(=O)O)c(C)o2)cc1` [Adjustment Example 1, 3-(5-{2-[5-methyl-2-(4-methylphenyl)-1,3-oxazol-4-yl]ethoxy}-3,4-dihydronaphthalen-1-yl)propanoic acid] had a specific surface area of 42.24 m^2/g. Consider `Cc1ccc(-c2nc(CCOc3cccc4c3CCC=C4CCC(=O)O)c(C)o2)cc1` [Adjustment Example 2, 3-(5-{2-[5-methyl-2-(4-methylphenyl)-1,3-oxazol-4-yl]ethoxy}-3,4-dihydronaphthalen-1-yl)propanoic acid], for which the specific surface area stood at 20.43 m^2/g.

Turning to `Cc1ccc(-c2nc(CCOc3cccc4c3CCC=C4CCC(=O)O)c(C)o2)cc1` [Adjustment Example 4(1), 3-(5-{2-[5-methyl-2-(4-methylphenyl)-1,3-oxazol-4-yl]ethoxy}-3,4-dihydronaphthalen-1-yl)propanoic acid], the specific surface area is recorded as 6.7 m^2/g. With `Cc1ccc(-c2nc(CCOc3cccc4c3CCC=C4CCC(=O)O)c(C)o2)cc1` [Adjustment Example 4(2), 3-(5-{2-[5-methyl-2-(4-methylphenyl)-1,3-oxazol-4-yl]ethoxy}-3,4-dihydronaphthalen-1-yl)propanoic acid] the figure was 17.8 m^2/g; with `Cc1ccc(-c2nc(CCOc3cccc4c3CCC=C4CCC(=O)O)c(C)o2)cc1` [Adjustment Example 5, 3-(5-{2-[5-methyl-2-(4-methylphenyl)-1,3-oxazol-4-yl]ethoxy}-3,4-dihydronaphthalen-1-yl)propanoic acid], 5.00 m^2/g. The figure for `Cc1ccc(-c2nc(CCOc3cccc4c3CCC=C4CCC(=O)O)c(C)o2)cc1` [Compound A, 3-(5-{2-[5-methyl-2-(4-methylphenyl)-1,3-oxazol-4-yl]ethoxy}-3,4-dihydronaphthalen-1-yl)propanoic acid] is 2.4 m^2/g.
